In patent US7241581B2, “Methods of identifying compounds that modulate IL-4 receptor-mediated IgE synthesis utilizing a c-MYC protein” (Rigel Pharmaceuticals, Inc., priority 2002, dated 2007):

Assays:
[1] = system: endogenous germline α promoter; assay: TAQMAN assay of endogenous germline α promoter transcription in ST486 cells; assay type: cell-based; conditions: ST486 cells stimulated with TGF-β 40 ng/ml; average of 3 values
Procedure: The assay was similar to that described in the immediately preceding section, except that ST486 cells (ATCC # CRL-1647) engineered to express the tetracycline-regulated transactivator were infected and the infected cells were stimulated with TGF-β (40 ng/ml; Peprotech). The primers and probe, which are specific for the transcription product driven by the ST486 endogenous α promoter, were as follows (the probe was labeled at the 5′-end with Fam and at the 3′-end with Tamra): […]

human c-Myc protein = target: T1, human c-Myc protein (Homo sapiens, UniProt P01106); assay: Yeast two hybrid (YTH) interaction assay, β-galactosidase; assay type: binding
T1 construct: expressed in transfected cells; prey cDNA library made from the A5T4 reporter line (human BJAB B-cells)
T1 sequence (P01106 whole entry): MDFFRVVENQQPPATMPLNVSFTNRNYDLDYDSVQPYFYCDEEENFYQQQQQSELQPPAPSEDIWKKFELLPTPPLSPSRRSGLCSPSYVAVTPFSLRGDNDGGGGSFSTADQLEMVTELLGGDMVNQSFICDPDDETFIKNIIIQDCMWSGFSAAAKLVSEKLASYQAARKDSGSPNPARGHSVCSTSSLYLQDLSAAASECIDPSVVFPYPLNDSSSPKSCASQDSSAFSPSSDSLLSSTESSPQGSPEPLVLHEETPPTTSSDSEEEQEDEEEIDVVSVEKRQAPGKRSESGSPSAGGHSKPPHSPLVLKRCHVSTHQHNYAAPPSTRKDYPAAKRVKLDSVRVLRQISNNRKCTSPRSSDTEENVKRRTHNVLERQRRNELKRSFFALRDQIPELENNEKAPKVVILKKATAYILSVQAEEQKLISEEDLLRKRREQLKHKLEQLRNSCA
Procedure: Potential binding partners for peptide BR10A1 wt were identified in a β-galactosidase yeast two-hybrid (YTH) assay using peptide BR10A1 wt as bait and a cDNA library constructed from the A5T4 reporter cell line as prey. Binding was assessed by β-galactosidase quantification using BetaFluor (Novagen) as a substrate. A negative interaction control (no cDNA fused downstream of the GAL4 activation domain sequence) was also run. A general outline of the YTH assay is illustrated in FIG. 5A. Following clustering, filtering to remove non-specific bait hits (e.g., GFP and BFP), singletons and clusters recognized by 10 or more cDNA baits (based upon historical YTH assays), and prioritization, 30 prey clones were identified as hits.
Potential targets identified in the YTH assay were reconfirmed as generally outlined in FIG. 6. The cDNA clones identified as hits in the YTH assay were purified and rescreened for interaction with the BR10A1 wt peptide in a YTH assay. The hit clones were also screened in a control assay for interaction with the BFP using a vector (pGBKT7) that contained only the BFP and not the BR10A1 peptide. At this stage, 25 putative target clones remained.
The interaction of BR10A1 wt peptide and its mutants with the clones identified as potential targets for the peptide BR10A1 wt was then quantified in a β-galactosidase YTH assay. The YTH assay was performed in the manner described above. A general outline of this YTH assay is illustrated in FIG. 5B. For each clone tested, an interaction profile was developed by comparing the β-galactosidase activity of each mutant to that of the wild type peptide as described above.
The interaction of selected IOF, ROF and LOF mutants with different polypeptides encoded by the putative target clones were quantified using the YTH assay described above. Based on the YTH assay, for each putative target, the mutants were categorized into the following four interaction categories: (1) reduction of interaction (ROI); (2) loss of interaction (LOI); (3) increase of interaction (IOI); and (4) interactionally neutral (N), by assessing the binding affinity ratio of the mutant peptide and the wild type peptide (β-gal activity of mutant/wild type) to the putative target. The selection criteria for categorizing the interactions is shown on FIG. 8.

[2] = system: IL-4 induced germline ε transcription; assay: Re-infection assay in naive A5T4 cells (BFP- vs BFP+ populations, GFP by FACS); assay type: cell-based, human; conditions: geometric mean GFP fluorescence of BFP- population divided by BFP+ population, IL-4 60 U/mL, 3 days
Procedure: The ability of peptide BR10A1 wt to inhibit germline ε transcription was confirmed in naive cells. Briefly, Phoenix cells were transfected with a retroviral vector encoding a BFP-BR10A1 wt peptide fusion as described in WO 99/58663 and WO 97/27213. Naïve A5T4 cells were infected with the resultant virions and grown for 3 days. The infected cells were stimulated with IL-4 (60 U/mL) and, after 3 days, the cells were assessed by FACS for BFP and GFP. […] The BFP fluorescence data corresponding to the BFP^+ and BFP^− populations are provided in Panel A. The GFP fluorescence data corresponding to the BFP^+ and BFP^− populations are presented in Panel B. The reporter ratio for this purpose is determined as the geometric mean of the GFP fluorescence of the BFP^− population divided by the geometric mean of the GFP fluorescence of the BFP^+ population. The reporter ratio for the BR10A1 in this re-infection assay was 1.27.

[3] = system: endogenous germline ε promoter; assay: TAQMAN assay of endogenous germline ε promoter transcription in A5T4 cells; assay type: cell-based, human; conditions: relative expression units of +IL-4/+Dox to +IL-4/-Dox A5T4 cells; IL-4 60 U/ml, 3 days; average of 3 values
Procedure: The ability of peptide BR10A1 wt to inhibit transcription of an endogenous germline ε promoter was confirmed using a TAQMAN® assay (Roche Molecular, Alameda, Calif.). Briefly, A5T4 cells were infected with retrovirus capable of expressing peptide BR10A1 wt (prepared as described above). The cells were sorted for BFP^+ to select for infected cells. Infected cells were divided into two populations. One population was exposed to Dox (10 ng/ml). Both populations were stimulated with IL-4 (60 U/ml). After 3 days, the cells were pelleted and the pellets assayed for ε promoter transcription using a TAQMAN assay performed as described in Applied Biosystems Protocol 4310299 (available at http:www.appliedbiosystems.com). The primers and probe, which are specific for the transcription product driven by the A5T4 endogenous ε promoter, were as follows (the probe was labeled at the 5′-end with Fam and at the 3′-end with Tamra): […]

binding to human c-Myc protein in yeast two hybrid interaction assay (human c-Myc protein): found to bind
Sequence: MQRRESCITRSVEEGWGLFYLGP (peptide encoded by random oligo-BR10A1wt) [wild-type peptide from random library, expressed in cells as BFP-peptide fusion]
endogenous α inhibition ratio [1]: 0.87 | Reporter Ratio [2]: 1.27 | endogenous ε inhibition ratio [3]: 2.18
